Here are results for one molecule from patent publication US20240130675A1, “Methods for Treating Autism Spectrum Disorder” (The General Hospital Corporation, priority 2021, published 2024).

This assay deals with youth with ASD. Nature of the assay: 12-week RCT: associated psychopathology and global functioning (ADHD-RS, CASI-ANX, CDRS-R, GAF). It is filed as in vivo, human. The conditions noted are these: MEM [N = 16]. The protocol:
This study was a 12-week, randomized, double-blind, placebo-controlled, parallel group clinical trial of memantine in youth with ASD. Youth with ASD who met the eligibility criteria were randomized to receive either memantine or placebo during the course of the 12-week trial. Participants underwent multimodal MRI scans prior to and upon completion of the 12-week trial. Participants were assessed weekly during the titration phase (baseline to Week 4) and at midpoint (Week 6), Week 9, and completion (Week 12) during the maintenance phase. At each study visit, safety and efficacy were assessed by administering measures of efficacy (CGI, GAF), tolerability (assessing treatment-emergent AEs), and safety (vital signs, including weight). At baseline, midpoint, and endpoint (completion/early termination) severity of autism was assessed by administering measures of autism severity (SRS-2, ABC-SW, CY-BOCS-PDD) and associated psychopathology (ADHD-RS, CDRS-R, CASI-ANX).
Additional treatment response of autism impairment was examined for the ASD subdomains by assessing change with treatment in the severity of the SRS-2 subscales and the Children's Yale Brown Obsessive Compulsive Scale modified for PDD (CY-BOCS-PDD) (Goodman et al., 1986 (Rev 89); Scahill et al., 2006) to assess change with treatment in the ritualistic behaviors associated with ASD. Treatment response of frequently associated psychopathologies with ASD was assessed by administering the clinician-rated Attention Deficit Hyperactivity Disorder Rating Scale (ADHD-RS) (DuPaul, Power, Anastopoulos, & Reed, 1998), Children's Depression Rating Scale-Revised (CDRS-R)(Poznanski et al., 1985), and CASI-4 ASD Anxiety Scale (CASI-4 ASD Anxiety Scale (CASI-Anx)(Gadow et al., 2002). Change with treatment in the level of global functioning was assessed by the clinician-rated GAF.
The mixed-effects regression models used to analyze the secondary measures of efficacy predicted the outcome measure from treatment group (memantine versus placebo), study visit (continuous), and the treatment group-by-study visit interaction, which is our test of efficacy. To examine the effect of baseline PgACC glutamate activity level on the response to treatment, we predicted outcomes measures from treatment group, study visit (continuous), PgACC glutamate activity level (continuous), treatment group-by-study visit interaction, glutamate activity level-by-study visit interaction, treatment group-by-glutamate activity level interaction, and treatment group-by-glutamate activity level-by-study visit interaction. All mixed-effects regression models had random intercepts by subject ID, used robust standard errors to account for the repeated measures on each subject, and used an independent covariance structure for the random effects. […] All missing data were assumed to be missing at random.
Effect sizes are presented as standardized mean differences (SMD) for continuous outcomes and odds ratios (OR) for dichotomous outcomes. The SMDs for the difference of the changes in scores over time between memantine and placebo and between high glutamate and normal glutamate were calculated as Cohen's d using the following calculations: the difference in the change scores between the two groups divided by the pooled standard deviation. The SMDs for changes in scores within groups were calculated as Cohen's d using the following calculation: difference in score from baseline to endpoint divided by the pooled standard deviation. For comparisons of memantine versus placebo and high glutamate versus normal glutamate, positive SMDs and ORs>1 indicate better improvement in the memantine group and high glutamate group, respectively. For comparisons of ASD versus healthy controls, positive SMDs indicate lower glutamate activity levels in the ASD group. […]

Where the note is “BL (baseline)”, `CC12CC3CC(C)(C1)CC(N)(C3)C2` [MEM, memantine] displayed an ADHD-RS of 29.1 ± 13.6, a CASI-ANX of 14.7 ± 8.6, a CDRS-R of 31.4 ± 17.1 and a GAF of 53.6 ± 2.7. For the setting “EP (endpoint)”, this molecule registered an ADHD-RS of 18.8 ± 10.9, a CASI-ANX of 7.4 ± 5.6, a CDRS-R of 22.8 ± 7.5 and a GAF of 61.8 ± 4.4. For the setting “MD (mean difference)”, this molecule had an ADHD-RS of −10.3 ± 10.6, a CASI-ANX of −7.3 ± 6.2, a CDRS-R of −8.7 ± 10.8 and a GAF of 8.2 ± 5.9.
